According to US10800791B2, “Triazole ACC inhibitors and uses thereof” (Gilead Apollo, LLC, priority 2015, dated 2020):
≈ marks a conversion by molar mass, not a printed value. Like-named read-outs stand apart in the source and are kept apart here.

Columns and labels:
Rhizoctonia solani (Rs) = experiment: Growth inhibition assay of fungal pathogens, Rs; format: cell-based; conditions: 48 h
[1] = system: Fusarium virguliforme (Fv); experiment: Growth inhibition assay of fungal pathogens, Fv; format: cell-based; conditions: 48 h
Procedure, shortened: (§1)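 Percent inhibition derived at 48 hours from OD600 and visual scores versus 2% DMSO control, with media+DMSO blank as background. Spore inocula in 17% V8 medium were sized from 48 h growth curves; compounds tested at final 50/10/2 or 2/0.4/0.08 ppm.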

human (hACC2) = human (hACC2) (Homo sapiens, UniProt O00763); experiment: In vitro ACC inhibition assay (ADP-Glo), hACC2; format: biochemical; conditions: 5 nM ACC2, 20 μM ATP, 20 μM acetyl-CoA
Sequence of human (hACC2) (O00763 whole entry): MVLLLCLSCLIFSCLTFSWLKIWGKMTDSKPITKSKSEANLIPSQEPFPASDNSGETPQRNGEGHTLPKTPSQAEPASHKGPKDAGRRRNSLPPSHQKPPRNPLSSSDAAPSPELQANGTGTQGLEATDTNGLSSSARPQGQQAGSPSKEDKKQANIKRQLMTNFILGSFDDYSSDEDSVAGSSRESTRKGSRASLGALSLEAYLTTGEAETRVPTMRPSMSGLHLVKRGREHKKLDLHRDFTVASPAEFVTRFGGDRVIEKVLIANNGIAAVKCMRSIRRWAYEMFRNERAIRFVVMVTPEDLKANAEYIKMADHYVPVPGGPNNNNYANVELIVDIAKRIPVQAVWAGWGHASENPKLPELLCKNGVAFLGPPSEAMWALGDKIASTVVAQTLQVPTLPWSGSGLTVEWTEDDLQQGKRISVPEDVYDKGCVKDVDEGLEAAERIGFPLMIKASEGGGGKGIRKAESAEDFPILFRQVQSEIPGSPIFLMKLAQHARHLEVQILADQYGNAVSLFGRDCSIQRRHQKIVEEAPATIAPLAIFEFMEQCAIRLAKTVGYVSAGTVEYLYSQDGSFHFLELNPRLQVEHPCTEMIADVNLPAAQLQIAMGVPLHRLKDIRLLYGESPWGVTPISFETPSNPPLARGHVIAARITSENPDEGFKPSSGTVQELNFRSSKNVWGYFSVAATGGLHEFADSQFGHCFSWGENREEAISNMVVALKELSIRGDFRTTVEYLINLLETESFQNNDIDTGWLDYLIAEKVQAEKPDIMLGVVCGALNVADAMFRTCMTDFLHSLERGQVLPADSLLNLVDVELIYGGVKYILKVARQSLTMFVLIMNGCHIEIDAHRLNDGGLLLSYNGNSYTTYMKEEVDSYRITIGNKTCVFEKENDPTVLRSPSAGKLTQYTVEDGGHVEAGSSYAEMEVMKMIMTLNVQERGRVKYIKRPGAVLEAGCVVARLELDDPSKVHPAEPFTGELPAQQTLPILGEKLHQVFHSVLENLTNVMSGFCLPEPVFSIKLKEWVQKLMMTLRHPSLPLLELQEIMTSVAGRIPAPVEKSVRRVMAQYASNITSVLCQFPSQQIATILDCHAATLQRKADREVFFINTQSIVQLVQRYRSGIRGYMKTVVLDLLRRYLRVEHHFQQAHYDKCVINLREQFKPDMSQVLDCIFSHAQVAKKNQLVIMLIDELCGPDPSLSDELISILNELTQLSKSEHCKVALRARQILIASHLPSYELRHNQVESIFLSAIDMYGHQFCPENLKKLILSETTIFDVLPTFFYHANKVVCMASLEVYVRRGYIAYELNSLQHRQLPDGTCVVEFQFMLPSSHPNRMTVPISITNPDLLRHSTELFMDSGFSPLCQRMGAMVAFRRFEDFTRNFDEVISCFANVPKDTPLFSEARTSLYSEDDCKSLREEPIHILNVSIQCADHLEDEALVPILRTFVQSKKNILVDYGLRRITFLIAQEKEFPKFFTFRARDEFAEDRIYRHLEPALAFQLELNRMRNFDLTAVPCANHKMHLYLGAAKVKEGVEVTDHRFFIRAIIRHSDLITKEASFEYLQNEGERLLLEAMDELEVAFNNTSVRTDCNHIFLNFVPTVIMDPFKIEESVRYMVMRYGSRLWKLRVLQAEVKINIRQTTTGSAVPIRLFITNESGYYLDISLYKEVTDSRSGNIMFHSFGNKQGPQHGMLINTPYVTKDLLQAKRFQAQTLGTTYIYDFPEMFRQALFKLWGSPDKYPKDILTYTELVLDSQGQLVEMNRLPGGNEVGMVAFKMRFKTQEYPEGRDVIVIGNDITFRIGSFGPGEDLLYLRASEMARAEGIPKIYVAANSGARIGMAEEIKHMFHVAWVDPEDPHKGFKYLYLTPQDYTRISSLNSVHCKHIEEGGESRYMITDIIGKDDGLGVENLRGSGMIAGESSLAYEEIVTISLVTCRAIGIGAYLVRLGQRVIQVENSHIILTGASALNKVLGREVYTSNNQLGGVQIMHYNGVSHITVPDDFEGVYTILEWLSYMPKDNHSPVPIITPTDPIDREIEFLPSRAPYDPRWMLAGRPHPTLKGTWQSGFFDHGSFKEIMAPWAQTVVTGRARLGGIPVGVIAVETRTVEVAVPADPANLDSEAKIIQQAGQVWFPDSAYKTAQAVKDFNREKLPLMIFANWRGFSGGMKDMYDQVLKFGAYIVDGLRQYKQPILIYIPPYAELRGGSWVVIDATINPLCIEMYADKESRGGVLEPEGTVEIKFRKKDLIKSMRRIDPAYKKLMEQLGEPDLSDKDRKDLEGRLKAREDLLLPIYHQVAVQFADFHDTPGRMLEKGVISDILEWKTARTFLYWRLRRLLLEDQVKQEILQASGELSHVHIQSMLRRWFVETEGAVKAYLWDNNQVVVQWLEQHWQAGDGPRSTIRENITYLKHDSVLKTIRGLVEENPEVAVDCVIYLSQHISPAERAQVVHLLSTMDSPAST
Experimental: The detailed procedure is as follows. […] 10 μL ADP glo reagent was added. […] 20 μL kinase detection reagent was added.

[2] = system: Fusarium moniliforme (Fm); experiment: Growth inhibition assay of fungal pathogens, Fm; format: cell-based
Procedure, shortened: as §1

C. krusei = experiment: Antifungal Activity Assay (broth microtiter MIC), C. krusei; format: cell-based, Candida krusei; conditions: Pichia kudriavzevii, ATCC6258, 48 h
Procedure, shortened: (§2)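 CLSI M27-A3 broth microdilution in RPMI 1640+MOPS, final inoculum 2.5×10^3 CFU/mL from overnight Sabouraud cultures grown at 35 °C. MIC read visually at 48 h against growth control.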

fungal (fACC2) = fungal (fACC2) (UniProt Q00955); conditions: read-out: fACC2 (in vitro ACC2 Inhibition Assay, IC50), ADP-Glo, 5 nM ACC2, 20 μM ATP, 20 μM acetyl-CoA
Sequence of fungal (fACC2) (Q00955 whole entry): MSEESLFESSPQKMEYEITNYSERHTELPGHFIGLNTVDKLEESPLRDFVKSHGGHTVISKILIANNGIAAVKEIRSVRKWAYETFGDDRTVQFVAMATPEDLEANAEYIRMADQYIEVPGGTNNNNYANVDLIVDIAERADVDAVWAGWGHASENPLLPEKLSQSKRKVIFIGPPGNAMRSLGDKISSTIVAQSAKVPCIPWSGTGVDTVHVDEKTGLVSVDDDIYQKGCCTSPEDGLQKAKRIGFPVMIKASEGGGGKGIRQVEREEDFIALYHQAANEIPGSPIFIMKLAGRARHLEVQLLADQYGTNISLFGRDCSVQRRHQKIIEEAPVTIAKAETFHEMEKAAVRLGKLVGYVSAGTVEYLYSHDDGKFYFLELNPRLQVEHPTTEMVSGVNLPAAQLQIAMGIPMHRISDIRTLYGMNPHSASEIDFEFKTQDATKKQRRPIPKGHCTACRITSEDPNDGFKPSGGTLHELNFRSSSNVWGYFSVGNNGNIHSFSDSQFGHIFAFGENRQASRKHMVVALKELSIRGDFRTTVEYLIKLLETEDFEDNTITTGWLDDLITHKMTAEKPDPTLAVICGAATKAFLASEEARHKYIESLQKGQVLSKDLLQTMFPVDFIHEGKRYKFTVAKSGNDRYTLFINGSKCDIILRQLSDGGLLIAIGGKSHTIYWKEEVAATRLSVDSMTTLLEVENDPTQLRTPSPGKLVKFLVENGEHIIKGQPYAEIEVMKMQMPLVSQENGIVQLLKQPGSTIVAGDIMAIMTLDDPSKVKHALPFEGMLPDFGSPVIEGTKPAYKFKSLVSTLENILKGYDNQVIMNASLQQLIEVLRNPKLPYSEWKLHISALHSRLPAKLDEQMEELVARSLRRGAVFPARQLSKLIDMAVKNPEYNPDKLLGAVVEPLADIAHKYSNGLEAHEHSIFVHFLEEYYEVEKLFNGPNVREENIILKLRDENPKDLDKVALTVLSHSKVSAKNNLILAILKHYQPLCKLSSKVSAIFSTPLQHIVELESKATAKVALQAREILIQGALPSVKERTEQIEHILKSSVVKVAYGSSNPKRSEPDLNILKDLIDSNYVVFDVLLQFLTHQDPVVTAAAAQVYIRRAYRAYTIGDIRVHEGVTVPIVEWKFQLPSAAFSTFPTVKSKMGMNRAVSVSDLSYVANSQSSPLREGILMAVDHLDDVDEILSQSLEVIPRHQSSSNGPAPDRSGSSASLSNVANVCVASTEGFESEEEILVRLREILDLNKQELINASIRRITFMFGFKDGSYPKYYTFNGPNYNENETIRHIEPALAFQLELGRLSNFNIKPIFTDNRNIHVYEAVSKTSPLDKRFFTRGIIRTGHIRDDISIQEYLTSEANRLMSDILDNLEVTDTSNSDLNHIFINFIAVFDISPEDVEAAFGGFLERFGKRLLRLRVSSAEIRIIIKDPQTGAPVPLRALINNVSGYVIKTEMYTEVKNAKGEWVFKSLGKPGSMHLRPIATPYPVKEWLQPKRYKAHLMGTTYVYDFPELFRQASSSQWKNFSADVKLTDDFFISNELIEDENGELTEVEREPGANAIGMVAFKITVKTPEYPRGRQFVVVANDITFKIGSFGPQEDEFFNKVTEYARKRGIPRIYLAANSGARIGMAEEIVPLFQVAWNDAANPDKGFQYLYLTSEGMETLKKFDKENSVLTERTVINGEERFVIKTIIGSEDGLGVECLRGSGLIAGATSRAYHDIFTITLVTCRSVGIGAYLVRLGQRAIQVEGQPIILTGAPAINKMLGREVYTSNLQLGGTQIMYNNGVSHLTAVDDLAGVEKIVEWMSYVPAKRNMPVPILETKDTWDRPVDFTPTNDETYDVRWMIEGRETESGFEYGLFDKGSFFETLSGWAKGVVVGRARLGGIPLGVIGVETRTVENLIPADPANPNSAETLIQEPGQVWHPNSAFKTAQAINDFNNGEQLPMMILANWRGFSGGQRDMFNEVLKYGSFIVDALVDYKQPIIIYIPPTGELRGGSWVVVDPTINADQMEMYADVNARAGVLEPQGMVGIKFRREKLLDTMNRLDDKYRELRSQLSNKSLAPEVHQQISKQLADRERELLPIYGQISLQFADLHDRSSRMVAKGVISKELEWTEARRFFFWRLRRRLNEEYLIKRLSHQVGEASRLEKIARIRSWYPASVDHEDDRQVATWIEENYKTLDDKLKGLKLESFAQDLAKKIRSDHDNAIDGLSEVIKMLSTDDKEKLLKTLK

[3] = system: Phytophthora capsici (Pc); experiment: Growth inhibition assay of fungal pathogens, Pc; format: cell-based; conditions: 48 h
Procedure, shortened: as §1

Septoria tritici (St) = experiment: Growth inhibition assay of fungal pathogens, St; format: cell-based; conditions: Zymoseptoria tritici, 48 h, read-out: Concentration at 90% Inhibition St, Septoria tritici
Procedure, shortened: as §1

C. parapsilosis = experiment: Antifungal Activity Assay (broth microtiter MIC), C. parapsilosis; format: cell-based, Candida parapsilosis; conditions: Lodderomyces parapsilosis, ATCC22019, 48 h
Procedure, shortened: as §2

[4] = system: Collectotrichum graminicola (Cg); experiment: Growth inhibition assay of fungal pathogens, Cg; format: cell-based; conditions: 48 h, read-out: Concentration at 90% Inhibition Cg, Collectotrichum graminicola
Procedure, shortened: as §1

[5] = growth inhibition at 48 hours vs 2% DMSO control
[6] = growth inhibition vs 2% DMSO control at 48 hours

Question: Which IC90 (Rhizoctonia solani (Rs); read-out: Concentration at 90% Inhibition Rs, Rhizoctonia solani, mycelial plugs, growth inhibition at 48 hours vs 2% DMSO control) does the source give for `Cc1c(-n2nccn2)sc2c1c(=O)n(C(C)(C)C(=O)NC(C)C)c(=O)n2C[C@H](OC(C)C)c1cc(F)ccc1OCC#N` [Compound I-56, (R)-2-(1-(2-(2-(cyanomethoxy)-5-fluorophenyl)-2-isopropoxyethyl)-5-methyl-2,4-dioxo-6-(2H-1,2,3-triazol-2-yl)-1,4-dihydrothieno[2,3-d]pyrimidin-3(2H)-yl)-N-isopropyl-2-methylpropanamide] here?
Answer: 2 µg/mL (≈ 3.27 µM)

Question: What about the IC90 (Rhizoctonia solani (Rs); read-out: Concentration at 90% Inhibition Rs, Rhizoctonia solani, mycelial plugs, growth inhibition vs 2% DMSO control at 48 hours) of the same molecule?
Answer: 2 µg/mL (≈ 3.27 µM)

Question: What about the IC90 ([1]; read-out: Concentration at 90% Inhibition Fv, Fusarium virguliforme, growth inhibition at 48 hours vs 2% DMSO control) of the same molecule?
Answer: 0.08 µg/mL (≈ 0.131 µM)

Question: And the IC90 ([1]; read-out: Concentration at 90% Inhibition Fv, Fusarium virguliforme, growth inhibition vs 2% DMSO control at 48 hours)?
Answer: 0.08 µg/mL (≈ 0.131 µM)

Question: And the IC50 (human (hACC2); Table 2a)?
Answer: 10 to 40 nM

Question: What about the IC50 (human (hACC2); Table 2b, additional results) of the same molecule?
Answer: 10 to 40 nM

Question: What about the “Concentration at 90% Inhibition Fm” value ([2]; Fusarium moniliforme, growth inhibition at 48 hours vs 2% DMSO control) of the same molecule?
Answer: AA (compound concentration of 0.08 ppm at 90% inhibition of fungal pathogens)

Question: And the IC90 ([2]; Fusarium verticillioides, 48 h, read-out: Concentration at 90% Inhibition Fm)?
Answer: 0.08 µg/mL (≈ 0.131 µM)

Question: And the MIC (C. krusei; read-out: MIC, C. krusei ATCC 6258, Table 3a, 3 replicates, MIC recorded at 48 h)?
Answer: 0.06 to 0.24 µg/mL (≈ 0.0981 to 0.392 µM)

Question: And the MIC (C. krusei; read-out: MIC, C. krusei ATCC 6258, Table 3b (additional results), 3 replicates, MIC recorded at 48 h)?
Answer: 0.25 to 1 µg/mL (≈ 0.409 to 1.63 µM)

Question: And the IC50 (fungal (fACC2); Table 2a)?
Answer: 1 to 5 nM

Question: What about the IC50 (fungal (fACC2); Table 2b, additional results) of the same molecule?
Answer: 1 to 5 nM

Question: And the IC90 ([3]; read-out: Concentration at 90% Inhibition Pc, Phytophthora capsici, growth inhibition at 48 hours vs 2% DMSO control)?
Answer: > 50 µg/mL

Question: And the IC90 ([3]; read-out: Concentration at 90% Inhibition Pc, Phytophthora capsici, growth inhibition vs 2% DMSO control at 48 hours)?
Answer: > 50 µg/mL

Question: What about the IC90 (Septoria tritici (St); [5]) of the same molecule?
Answer: 10 µg/mL (≈ 16.3 µM)

Question: What about the IC90 (Septoria tritici (St); [6]) of the same molecule?
Answer: > 50 µg/mL

Question: What about the MIC (C. parapsilosis; read-out: MIC, C. parapsilosis ATCC 22019, Table 3a, 3 replicates, MIC recorded at 48 h) of the same molecule?
Answer: 0.25 to 1 µg/mL (≈ 0.409 to 1.63 µM)

Question: And the MIC (C. parapsilosis; read-out: MIC, C. parapsilosis ATCC 22019, Table 3b (additional results), 3 replicates, MIC recorded at 48 h)?
Answer: 1.01 to 2 µg/mL (≈ 1.65 to 3.27 µM)

Question: And the IC90 [4, 5]?
Answer: 2 µg/mL (≈ 3.27 µM)

Question: And the IC90 [4, 6]?
Answer: 2 µg/mL (≈ 3.27 µM)
